# According to PubChem BioAssay AID248 (DTP/NCI, 2004):
# “And” between values parts separate entries of the source, which are not always exact repeats. Equal entries are not always repeated. Toxic doses and inconclusive results are not listed.
# Tested on: L1210 leukemia ip in BDF1 mice, survival T/C
# Assay: NCI In Vivo Anticancer Drug Screen. Data for tumor model L1210 Leukemia (intraperitoneal) in B6D2F1 (BDF1) mice
# Details: endpoint: mean survival time, higher = longer survival
# Summary of the method: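 Value reflects the ratio of survival in compound-treated mice to survival in vehicle-treated controls, with both groups carrying the same transplanted tumor.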
# [1] = dose: 12.5 mg/kg/injection, schedule: Q01DX009 (ip), vehicle: saline
# [2] = dose: 25.0 mg/kg/injection, schedule: Q01DX009 (ip), vehicle: saline
# [3] = dose: 50.0 mg/kg/injection, schedule: Q01DX001 (ip), vehicle: Klucel (hydroxypropylcellulose) (HPC)
# [4] = dose: 100.0 mg/kg/injection, schedule: Q01DX001 (ip), vehicle: Klucel (hydroxypropylcellulose) (HPC)
# [5] = dose: 100.0 mg/kg/injection, schedule: Q04DX003 (ip), vehicle: Klucel (hydroxypropylcellulose) (HPC)
# [6] = dose: 100.0 mg/kg/injection, schedule: Q01DX001 (ip), vehicle: carboxymethylcellulose (CMC)
# [7] = dose: 200.0 mg/kg/injection, schedule: Q01DX001 (ip), vehicle: carboxymethylcellulose (CMC)
# [8] = dose: 400.0 mg/kg/injection, schedule: Q01DX001 (ip), vehicle: carboxymethylcellulose (CMC)
smiles,measurement,setting,value
CC(=O)[C@H]1CC[C@H]2[C@@H]3CCC4=CC(=O)C=C[C@]4(C)[C@H]3C(=O)C[C@]12C,T/C,"dose: 25.0 mg/kg/injection, schedule: Q01DX015 (sc), vehicle: steriod suspending solution",98 % of control
same,T/C,"dose: 50.0 mg/kg/injection, schedule: Q01DX015 (sc), vehicle: steriod suspending solution",100 % of control
same,T/C,"dose: 100.0 mg/kg/injection, schedule: Q01DX009 (sc), vehicle: steriod suspending solution",97 % of control
same,T/C,"dose: 100.0 mg/kg/injection, schedule: Q01DX015 (sc), vehicle: steriod suspending solution",93 % of control
same,T/C,"dose: 100.0 mg/kg/injection, schedule: Q04DX003 (ip), vehicle: steriod suspending solution",98 % of control
same,T/C,"dose: 200.0 mg/kg/injection, schedule: Q01DX009 (sc), vehicle: steriod suspending solution",97 % of control
same,T/C,"dose: 200.0 mg/kg/injection, schedule: Q01DX015 (sc), vehicle: steriod suspending solution",104 % of control and 107 % of control
same,T/C,"dose: 200.0 mg/kg/injection, schedule: Q04DX003 (ip), vehicle: steriod suspending solution",101 % of control
same,T/C,"dose: 400.0 mg/kg/injection, schedule: Q01DX009 (sc), vehicle: steriod suspending solution",100 % of control
same,T/C,"dose: 400.0 mg/kg/injection, schedule: Q01DX015 (sc), vehicle: steriod suspending solution",104 % of control
same,T/C,"dose: 400.0 mg/kg/injection, schedule: Q04DX003 (ip), vehicle: steriod suspending solution",112 % of control
same,T/C,"dose: 800.0 mg/kg/injection, schedule: Q01DX015 (sc), vehicle: steriod suspending solution",104 % of control
COc1cc(C=Nc2ccc(-c3nc(C)sc3C)cc2)ccc1N(CCCl)CCCl,T/C,"dose: 11.0 mg/kg/injection, schedule: Q01DX009 (ip), vehicle: carboxymethylcellulose (CMC)",200 % of control
same,T/C,"dose: 11.1 mg/kg/injection, schedule: Q01DX001 (ip), vehicle: carboxymethylcellulose (CMC)",118 % of control
same,T/C,"dose: 16.6 mg/kg/injection, schedule: Q01DX009 (ip), vehicle: carboxymethylcellulose (CMC)",90 % of control
same,T/C,"dose: 25.0 mg/kg/injection, schedule: Q01DX001 (ip), vehicle: carboxymethylcellulose (CMC)",202 % of control
Cc1ccc(C2(C)CCC(=O)c3cc(C)c(C)cc32)cc1C (centres undefined),T/C,"dose: 50.0 mg/kg/injection, schedule: Q01DX001 (ip), vehicle: saline",97 % of control
same,T/C,"dose: 100.0 mg/kg/injection, schedule: Q01DX001 (ip), vehicle: saline",100 % of control
same,T/C,"dose: 200.0 mg/kg/injection, schedule: Q01DX001 (ip), vehicle: saline",94 % of control
same,T/C,"dose: 400.0 mg/kg/injection, schedule: Q01DX001 (ip), vehicle: saline",103 % of control
CC(CN1CCN(CCOCCO)CC1)CN1c2ccccc2Sc2ccccc21 (centres undefined),T/C,"dose: 3.12 mg/kg/injection, schedule: Q01DX009 (ip), vehicle: saline",103 % of control
same,T/C,"dose: 6.25 mg/kg/injection, schedule: Q01DX009 (ip), vehicle: saline",97 % of control
same,T/C,[1],108 % of control
same,T/C,[2],113 % of control
same,T/C,"dose: 25.0 mg/kg/injection, schedule: Q04DX003 (ip), vehicle: saline",96 % of control
same,T/C,"dose: 50.0 mg/kg/injection, schedule: Q04DX003 (ip), vehicle: saline",102 % of control
Cc1cccc([N+](=O)[O-])c1-c1c(C)cccc1[N+](=O)[O-],T/C,[3],102 % of control
same,T/C,[4],102 % of control
same,T/C,"dose: 200.0 mg/kg/injection, schedule: Q01DX001 (ip), vehicle: Klucel (hydroxypropylcellulose) (HPC)",96 % of control
O=C(O)CC(c1ccccc1)C(CC(=O)O)c1ccccc1 (centres undefined),T/C,[5],91 % of control
same,T/C,"dose: 200.0 mg/kg/injection, schedule: Q04DX003 (ip), vehicle: Klucel (hydroxypropylcellulose) (HPC)",95 % of control
same,T/C,"dose: 400.0 mg/kg/injection, schedule: Q04DX003 (ip), vehicle: Klucel (hydroxypropylcellulose) (HPC)",96 % of control
CCCCC(c1nc2c(c3c1CCCC3)CCCC2)C(O)(C(F)(F)F)C(F)(F)F (centres undefined),T/C,"dose: 25.0 mg/kg/injection, schedule: Q01DX009 (ip), vehicle: saline with Tween-80",102 % of control
same,T/C,"dose: 50.0 mg/kg/injection, schedule: Q01DX009 (ip), vehicle: saline with Tween-80",104 % of control
same,T/C,"dose: 100.0 mg/kg/injection, schedule: Q01DX009 (ip), vehicle: saline with Tween-80",93 % of control and 87 % of control
same,T/C,"dose: 100.0 mg/kg/injection, schedule: Q04DX003 (ip), vehicle: saline with Tween-80",97 % of control
same,T/C,"dose: 200.0 mg/kg/injection, schedule: Q01DX009 (ip), vehicle: saline with Tween-80",89 % of control
same,T/C,"dose: 200.0 mg/kg/injection, schedule: Q04DX003 (ip), vehicle: saline with Tween-80",100 % of control
same,T/C,"dose: 400.0 mg/kg/injection, schedule: Q04DX003 (ip), vehicle: saline with Tween-80",102 % of control
CC(C)(C)c1ccc(CC#N)cc1,T/C,"dose: 25.0 mg/kg/injection, schedule: Q04DX003 (ip), vehicle: Klucel (hydroxypropylcellulose) (HPC)",97 % of control
same,T/C,"dose: 50.0 mg/kg/injection, schedule: Q04DX003 (ip), vehicle: Klucel (hydroxypropylcellulose) (HPC)",94 % of control
same,T/C,[5],90 % of control
Fc1ccc(NC(=S)N/N=C\c2ccc(Cl)cc2Cl)cc1,T/C,"dose: 60.0 mg/kg/injection, schedule: Q01DX Z (oral), vehicle: methylcellulose (MC)",103 % of control
same,T/C,"dose: 120.0 mg/kg/injection, schedule: Q01DX Z (oral), vehicle: methylcellulose (MC)",89 % of control
same,T/C,"dose: 240.0 mg/kg/injection, schedule: Q01DX Z (ip), vehicle: methylcellulose (MC)",89 % of control
same,T/C,"dose: 240.0 mg/kg/injection, schedule: Q01DX Z (oral), vehicle: methylcellulose (MC)",93 % of control
same,T/C,"dose: 480.0 mg/kg/injection, schedule: Q01DX Z (oral), vehicle: methylcellulose (MC)",95 % of control
CC(C)c1ccc(/C=N/NC(=O)c2ccc[n+](C)c2)cc1,T/C,[1],94 % of control
same,T/C,[2],98 % of control
same,T/C,"dose: 50.0 mg/kg/injection, schedule: Q01DX009 (ip), vehicle: saline",112 % of control and 91 % of control
O=C(Oc1ccccc1)c1cc(Br)ccc1O,T/C,[6],97 % of control
same,T/C,[7],95 % of control
same,T/C,[8],100 % of control
CC([NH-])=O.CC([NH-])=O.[Cl][Pt+2][Cl],T/C,"dose: 50.0 mg/kg/injection, schedule: Q01DX009 (ip), vehicle: water",120 % of control
same,T/C,"dose: 100.0 mg/kg/injection, schedule: Q01DX009 (ip), vehicle: water",115 % of control
same,T/C,"dose: 100.0 mg/kg/injection, schedule: Q04DX003 (ip), vehicle: water",114 % of control
same,T/C,"dose: 200.0 mg/kg/injection, schedule: Q04DX003 (ip), vehicle: water",110 % of control
CCCCCCCCCCCCOCCCCCCCCCCCC,T/C,"dose: 100.0 mg/kg/injection, schedule: Q01DX009 (sc), vehicle: olive oil, sesame oil, peanut oil",104 % of control
same,T/C,"dose: 100.0 mg/kg/injection, schedule: Q04DX003 (sc), vehicle: olive oil, sesame oil, peanut oil",114 % of control
same,T/C,"dose: 200.0 mg/kg/injection, schedule: Q01DX009 (sc), vehicle: olive oil, sesame oil, peanut oil",100 % of control
same,T/C,"dose: 200.0 mg/kg/injection, schedule: Q04DX003 (sc), vehicle: olive oil, sesame oil, peanut oil",106 % of control
same,T/C,"dose: 400.0 mg/kg/injection, schedule: Q01DX009 (sc), vehicle: olive oil, sesame oil, peanut oil",102 % of control
same,T/C,"dose: 400.0 mg/kg/injection, schedule: Q04DX003 (sc), vehicle: olive oil, sesame oil, peanut oil",104 % of control
NC(N)=NCCc1ccc(Cl)cc1,T/C,[3],102 % of control
Cc1cn(O)c2nc(N)nc(=O)c-2n1,T/C,"dose: 25.0 mg/kg/injection, schedule: Q01DX001 (ip), vehicle: Klucel (hydroxypropylcellulose) (HPC)",97 % of control
same,T/C,[3],103 % of control
same,T/C,[4],100 % of control and 101 % of control
Cc1ccc(Cl)cc1NC(=O)c1ccc(Cl)cc1,T/C,"dose: 100.0 mg/kg/injection, schedule: Q01DX009 (ip), vehicle: Klucel (hydroxypropylcellulose) (HPC)",99 % of control
same,T/C,"dose: 100.0 mg/kg/injection, schedule: Q04DX003 (ip), vehicle: saline",114 % of control
same,T/C,"dose: 200.0 mg/kg/injection, schedule: Q01DX009 (ip), vehicle: Klucel (hydroxypropylcellulose) (HPC)",89 % of control
same,T/C,"dose: 200.0 mg/kg/injection, schedule: Q04DX003 (ip), vehicle: saline",97 % of control
same,T/C,"dose: 400.0 mg/kg/injection, schedule: Q01DX009 (ip), vehicle: Klucel (hydroxypropylcellulose) (HPC)",93 % of control
same,T/C,"dose: 400.0 mg/kg/injection, schedule: Q04DX003 (ip), vehicle: saline",119 % of control
O=C(Nc1cc2c3ccccc3ccc2c2ccccc12)C(F)(F)F,T/C,[6],91 % of control
same,T/C,[7],92 % of control
same,T/C,[8],97 % of control
OC(/N=C/c1ccccc1)C(Cl)(Cl)Cl (centres undefined),T/C,"dose: 100.0 mg/kg/injection, schedule: Q04DX002 (ip), vehicle: Klucel (hydroxypropylcellulose) (HPC)",103 % of control
same,T/C,"dose: 200.0 mg/kg/injection, schedule: Q04DX002 (ip), vehicle: Klucel (hydroxypropylcellulose) (HPC)",88 % of control
same,T/C,"dose: 400.0 mg/kg/injection, schedule: Q04DX002 (ip), vehicle: Klucel (hydroxypropylcellulose) (HPC)",114 % of control
